Data taken from patent US12440476B2, “Agents that target telomerase reverse transcriptase (TERT) for treating cancer and sensitizing cancer cells to genotoxic therapy” (Northwestern University, priority 2022, dated 2025).

What was measured:
Saos-2 cells = experiment: DNA damage foci staining (53BP1, γH2AX); format: cell-based, human; conditions: 1 μM NU-1, 0 or 6 Gy
Protocol: MCF7 or Saos-2 cells were seeded on sterile cover glass at 2.5×10^4 per well in 24-well plates. MCF7 cells were treated with DMSO, NU-2 (0.5 μM), NU-1 (0.5 μM), chrolactomycin (0.5 μM), BIBR 1532 (10 μM), or MST-312 (1 μM) for 1 h, and Saos-2 cells were treated with DMSO or NU-1 (1 μM) for 1 h, followed by 0 or 6 Gy irradiation. 24 h after irradiation, cells were fixed with 4% PFA for 10 min and permeabilized with 0.2% Triton-X 100 diluted in PBS for 10 min at room temperature. After blocking with 5% BSA-PBS for 1 h, primary antibodies for γH2AX (Millipore, 05-636, 1:1000) or 53BP1 (Novus, NB100-304, 1:1000) diluted in 5% BSA-PBS were then incubated on cell slides overnight at 4° C. Following PBS washes, DAPI (1 μg/mL) and fluorescent secondary antibodies (Jackson ImmunoResearch, 1:2000, ) diluted in 5% BSA-PBS were applied for 1 h at room temperature. Cell slides were mounted with ProLong Gold Antifade Mountant (Thermo Fisher Scientific) after PBS washes. Foci images were captured on a Zeiss Axiovert 40CFL with a 40× Plan-NeoFluar objective and pseudo-colored using Fiji. Three replicates were performed.

CT26 subcutaneous tumors = experiment: Subcutaneous CT26 tumor growth, NU-1 with or without 10 Gy; format: in vivo, BALB/c mice
Protocol: For tumor inoculation, 7-9 week BALB/c mice or NSG mice were subcutaneously injected in the flank with 0.5×10^6 CT26 cells in 100 μL PBS. On Day 9 (tumor average volume ˜30 mm^3), the tumor bearing BALB/c mice were randomly divided into 4 groups of 8, while the NSG mice were randomly divided into 2 groups of 5-6. For NU-1 treatment, 10 mg/kg of NU-1 in 100 μL PBS was injected intraperitoneally once on each of the 2 days before, the day of and 2 days after irradiation. Mouse weight was measured before treatment. Tumor irradiation was conducted on Day 11 using a RadSource RS-2000 X-Ray generator operating at 160 kV and 25 mA at 10 Gy, calibrated by NIST traceable dosimetry. From Day 7 after tumor inoculation, tumors were measured by calipers every 2-3 days and volume calculated using the formula: Tumor volume (mm^3)=length (mm)×width (mm)×width (mm)[…]. On Day 18 after tumor inoculation, tumors from 3 mice under each treatment condition were collected for histology analysis. The rest of the mice were continuously maintained and recorded until at least Day 28 or reaching the humane endpoint for tumor volume. No animals that formed tumors after injection with CT26 cells were excluded from any studies reported here.
CT26 tumors were collected 5 days after treatment (Day 18 after tumor inoculation) and fixed in 10% neutral formalin for 24 h. Formaldehyde-fixed paraffin-embedded (FFPE) tumors were sectioned and stained with hematoxylin and eosin (H&E) by the Human Tissue Resource Center at The University of Chicago. To perform immunofluorescence analysis, tumor sections were deparaffinized in xylene for 10 min, then rehydrated with 95%, 70%, 50%, and 0% ethanol for 5 min each. After that, the tumor section was immersed in 10 mM sodium citrate buffer (pH 6.0) for 30 min at 90° C. for antigen retrieval. Then the tumor sections were blocked in 5% BSA-TBS, stained with anti-Ki67 (1:1000), anti-γH2AX (1:500), anti-CD45 (1:500), anti-CD11c (1:250), anti-CD8 (1:250), anti-granzyme B (1:250) and anti-PD-L1 primary antibodies diluted in 5% BSA-TBS at 4° C. overnight. Followed by washing with TBST, tumor sections were stained with fluorophore-conjugated secondary antibodies (1:2000, Vector Labs) and DAPI (1 μg/mL) diluted in 5% BSA-TBS for 90 min at room temperature. The H&E stained tissue sections were scanned using an Olympus VS200 SlideView Whole Slide Scanner. The fluorescent tumor sections were imaged using a 3i Marianas Spinning Disk Confocal with a 20× objective and pseudo-colored using Fiji. Detailed primary antibody information is provided in Key resources table.

MCF7 cells = conditions: cited from earlier work
[1] = IR + NU-1, tumors removed on Day 18

C=C1C(=O)[C@](C)(C(=O)OC)[C@H](CCc2cn(Cc3ccc(F)cc3F)nn2)O[C@@H]1C [NU-1]
Effect on 53BP1 or γH2AX foci (Saos-2 cells): appeared not to impact 53BP1 or γH2AX foci
Effect on tumor growth, NU-1 alone (CT26 subcutaneous tumors; 10 mg/kg IP daily Days 9 to 13, no IR): no appreciable effect
Tumors eliminated within two weeks after treatment (CT26 subcutaneous tumors; IR (10 Gy, Day 11) + NU-1 10 mg/kg IP Days 9 to 13): 7 of 8
Tumor immune infiltration (CT26 subcutaneous tumors; IR + NU-1, Day 18 tumor sections): markedly higher tumor immune infiltration
Tumor recurrence after clearance (CT26 subcutaneous tumors; IR + NU-1, followed 54 days): did not recur
Ki-67 expression in tumors vs IR alone (CT26 subcutaneous tumors; [1]): lower expression of proliferation marker Ki-67
Persistent γH2AX in tumors vs IR alone (CT26 subcutaneous tumors; [1]): upregulation of persistent γH2AX
PD-L1 in tumors (CT26 subcutaneous tumors; IR + NU-1 vs IR alone): less increase in PD-L1
LD50 (MCF7 cells): 21 µM
